Source: patent publication US20210369677A1, “SMALL MOLECULE ACTIVATORS OF POLYCYSTIN-2 (PKD2) AND USES THEREOF” (Northwestern University, priority 2020, published 2021)
Read-outs that look alike come from different tables or passages of the source.

Columns and labels:
[1] = target: T1, human polycystin-2 CTD EF hand (I704-P797) (Homo sapiens, UniProt Q13563); details: Yang et al., 2015; read-out: Kd previously reported for this peptide; cited from earlier work
T1 construct: The C-terminal fragment of the human polycystin-2 (I704-P797) was cloned into the PET19b vector; 10xHis (N); made in house; host or cells: E. coli BL21 (DE3)
T1 sequence (Q13563 704-797): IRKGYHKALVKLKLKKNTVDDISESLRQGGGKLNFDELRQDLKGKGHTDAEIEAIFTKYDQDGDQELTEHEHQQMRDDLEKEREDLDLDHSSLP

[2] = target: T1, human polycystin-2 CTD EF hand (I704-P797); experiment: Isothermal titration calorimetry of divalent ions into the CTD of polycystin-2; format: binding; details: 25° C; read-out: Ca2+ affinity (Kd) for WT human CTD EF hand
Method: CTD protein expression, purification, and isothermal titration calorimetry. The C-terminal fragment of the human polycystin-2 (I704-P797) was cloned into the PET19b vector and transformed into BL21 (DE3) competent cells (New England Biolabs) for bacterial expression. The translated peptide has a 10×His tag on its N-terminus. The alanine mutants of the individual calcium-coordinating residues were created and transformed as well. Cells were grown in 2XYT broth in a 37° C. shaking incubator until OD600 reaches ˜0.6, and were induced by 0.4 mM isopropyl 1-thio-β-D-galactopyranoside and grown for another 4 hours. Cells were harvested and resuspended in Buffer A (500 mM NaCl, 20 mM Tris/HCl, pH 7.4), 5% glycerol, 0.25 mM EDTA pH 8.0, 1 mM PMSF (RPI), 25 μg/ml of lysozyme and DNase I (GoldBio). The suspension was then lysed by sonication and clarified by centrifugation (30,000×g for 0.5 h). Filtered supernatant was loaded into a HisPur cobalt Superflow agarose column (ThermoScientific). The column was washed with 10 column volume (CV) of buffer A, 5 CV of buffer A+5 mM imidazole, and finally eluted with 3 CV of buffer A+100 mM imidazole. The eluate was desalted by dialysis in 150 mM NaCl, 20 mM Tris/HCl, 20 mM imidazole, pH 7.4. SDS-PAGE gel confirmed the expression, solubility, and purity of the peptide. All of our solutions were formulated with ultrapure water (Milli-Q® IQ 7005 water purification system), that has less than 0.29 ng/L calcium ions present. The binding affinity is recorded based on the heat difference between the sample cell and reference cell measured by MicroCal iTC200. […] The cells were insulated by an adiabatic jacket held at 25° C. The heat of dilution of Ca^2+ was not subtracted from data sets, as the signal was prohibitively small for several of the mutant channels. The exothermic energy of the bimolecular interaction between Ca^2+ and peptide during each injection was analyzed by integrating the change in heat to generate the binding isotherm. […]

polycystin-2L1 = target: T2, polycystin-2L1 (Homo sapiens, UniProt Q9P0L9, C210S/C223S); format: cell-based; details: C210S:C223S mutant
T2 construct: expressed in transfected cells; host or cells: HEK cells, transient overexpression
Method: Electrophysiology. Ciliary ion currents were recorded using borosilicate glass electrodes polished to resistances of 14-22 MΩ using the cilium patch method previously described^32. Whole cell electrodes used to measure poly cystin-2L1 currents were fire polished to 1.5-4 MΩ resistances. Unless otherwise stated, whole cilia ionic currents were recorded in symmetrical [Na^+]. The pipette standard internal solution contained (in mM): 90 NaMES, 10 NaCl, 10 HEPES, 10 Na4-BAPTA (Glycine, N, N′-[1,2-ethanediylbis(oxy-2,1-phenylene)]bis[N-(carboxymethyl)]-,tetrasodium); pH was adjusted to 7.3 using NaOH. Standard bath solution contained 140 NaCl, 10 HEPES, 1.8 CaCl2); pH 7.4. All solutions were osmotically balanced to 295 (±6) mOsm with mannitol. Extracellular solutions containing TCEP and GSH were used within six hours of formulation. Data were collected using an Axopatch 200B patch clamp amplifier, Digidata 1440A, and pClamp 10 software. Whole-cilium and excised patch currents were digitized at 25 kHz and low-pass filtered at 10 kHz. In the whole cilium configuration, the holding potential was −60 mV and then depolarized using a 400 ms voltage ramp from −100 mV to 100 mV. The whole cell recordings of polycystin-2L1 currents were either activated by the same ramp protocol or by 100 ms depolarizations to 100 mV from a −100 mV holding potential. External conditions were controlled using a Warner Perfusion Fast-Step (SF-77B) system in which the patched cilia and electrode were held in the perfusate stream. Data were analyzed by Igor Pro 7.00 (Wavemetrics, Lake Oswego, Oreg.). The polycystin-2 open probability and the polycystin-2L1 tail current-voltage relationships were fit to a Boltzmann function, f(x)=1/(1+exp[V−V1/2]/k) to estimate voltage of half-maximal activation of current (V1/2).

T2 sequence (Q9P0L9 whole entry C210S/C223S): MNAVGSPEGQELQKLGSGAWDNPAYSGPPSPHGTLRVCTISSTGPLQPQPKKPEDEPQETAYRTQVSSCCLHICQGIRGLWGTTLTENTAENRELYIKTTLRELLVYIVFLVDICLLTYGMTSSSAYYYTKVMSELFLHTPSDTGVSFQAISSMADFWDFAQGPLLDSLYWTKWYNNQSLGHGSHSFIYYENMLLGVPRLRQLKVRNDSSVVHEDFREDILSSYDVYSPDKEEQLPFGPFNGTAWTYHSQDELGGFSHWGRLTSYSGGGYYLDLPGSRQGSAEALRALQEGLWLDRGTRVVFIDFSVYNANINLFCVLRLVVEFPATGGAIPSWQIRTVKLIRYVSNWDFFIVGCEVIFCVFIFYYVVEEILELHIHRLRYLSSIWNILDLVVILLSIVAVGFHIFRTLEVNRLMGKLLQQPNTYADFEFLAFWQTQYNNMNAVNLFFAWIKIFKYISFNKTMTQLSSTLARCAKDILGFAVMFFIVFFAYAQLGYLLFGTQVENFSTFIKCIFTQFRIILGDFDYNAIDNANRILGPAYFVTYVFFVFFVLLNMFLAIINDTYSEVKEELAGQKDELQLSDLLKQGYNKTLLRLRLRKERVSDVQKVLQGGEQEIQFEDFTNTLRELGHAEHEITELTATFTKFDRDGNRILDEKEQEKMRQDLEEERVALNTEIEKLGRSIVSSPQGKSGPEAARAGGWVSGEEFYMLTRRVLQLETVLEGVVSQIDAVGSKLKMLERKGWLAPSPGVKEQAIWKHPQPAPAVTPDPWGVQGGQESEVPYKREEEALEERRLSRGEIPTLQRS

| Effect on C210S:C223S polycystin-2L1 channel (polycystin-2L1) | Compound | Kd [1] [µM] | Kd [2] [µM] |
| --- | --- | --- | --- |
| – | [Ca+2] [Ca^2+, calcium] | 22 | 19 ± 5 |
| insensitive | N[C@@H](CCC(=O)N[C@@H](CS)C(=O)NCC(=O)O)C(=O)O [GSH, reduced glutathione] | – | – |
